# Like-named read-outs stand apart in the source and are kept apart here.
# Tested on: SAUR 9218
# Test: MIC Test Method, standard agar dilution
# Assay type: cell-based
# Conditions: for MIC: read-out: SAUR 9218 MIC
# Outline: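 MIC (μg/ml) was read as the lowest drug level without visible growth of SAUR 9218 after overnight incubation at 35 °C. Inocula of about 10^4 to 10^5 cells per spot were applied to Mueller Hinton agar containing 2-fold serial compound dilutions.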
# [1] = agar dilution, Mueller Hinton agar, incubated overnight at 35° C., lowest concentration that inhibits visible growth
Compound,MIC [1] [µg/mL],further results
O=C(Nc1ccc(Br)cc1C(=O)O)c1ccc2ccccc2n1,8,–
N#Cc1ccc(NC(=O)c2cncc(-c3cccc4cccnc34)c2)c(C(=O)O)c1,32,–
Cc1noc(C)c1-c1cncc(C(=O)Nc2ccc(C#N)cc2C(=O)O)c1,16,–
Cc1sc(C(=O)Nc2ccc(C#N)cc2C(=O)O)cc1S(=O)(=O)N(C)C(C)C(O)c1ccccc1 (centres unmarked) [drawing 953],–,SAUR 9218 MIC [1]: 32 µg/mL
Cc1cc(CC(=O)Nc2cccc3cc(C(=O)Nc4ccc(C#N)cc4C(=O)O)[nH]c23)on1,2,–
N#Cc1ccc(NC(=O)C2=NS(=O)(=O)c3ccccc32)c(C(=O)O)c1,> 128,–
COc1cccc2cc(C(=O)Nc3ccc(Br)cc3C(=O)O)oc12,32,–
Cc1sc(C(=O)Nc2ccc(C#N)cc2C(=O)O)cc1S(=O)(=O)N1CCC(O)CC1,16,–
CN(C)c1ccc(CNS(=O)(=O)c2cc(C(=O)Nc3ccc(Br)cc3C(=O)O)cs2)cc1,64,–
N#Cc1ccc(NC(=O)c2nc(-c3ccccc3)cs2)c(C(=O)O)c1,8,–
O=C(Nc1ccc(Br)cc1C(=O)O)c1csc(S(=O)(=O)N2CC3CC2CN3Cc2ccccc2)c1 (centres unmarked),> 128,–
Cn1c(C(=O)Nc2ccc(C#N)cc2C(=O)O)cc2ccc(NS(=O)(=O)c3cccc4cccnc34)cc21,1,–
Cc1sc(C(=O)Nc2ccc(C#N)cc2C(=O)O)cc1S(=O)(=O)N1CC(C)OC(C)C1 (centres unmarked),16,–
COC(Cc1cnc(C(=O)Nc2ccc(Br)cc2C(=O)O)cn1)[C@H](O)CO (some centres unmarked),> 128,–
CC1(C)OCC(CCc2nc(C(=O)Nc3ccc(Br)cc3C(=O)O)co2)O1 (centres unmarked),> 128,–
N#Cc1ccc(NC(=O)c2noc3cc(O)ccc23)c(C(=O)O)c1,1,–
Cc1sc(C(=O)Nc2ccc(C#N)cc2C(=O)O)cc1S(=O)(=O)N(CCC#N)Cc1ccccc1,64,–
Cc1sc(C(=O)Nc2ccc(Br)cc2C(=O)O)cc1S(=O)(=O)N1CCN(c2cccc(C(F)(F)F)c2)CC1,32,–
Cn1c(C(=O)Nc2ccc(C#N)cc2C(=O)O)cc2cccc(NC(=O)c3cccc(S(=O)(=O)N4CCOCC4)c3)c21,2,–
Cn1cccc1-c1cnc(C(=O)Nc2ccc(Br)cc2C(=O)O)o1,2,–

Compound,MIC [1] [µg/mL],further results
COCC(C)NCC(O)COc1cccc2cc(C(=O)Nc3ccc(C#N)cc3C(=O)O)n(C)c12.Cl (centres unmarked),1,–
C=CCn1c(C(=O)Nc2ccc(Br)cc2C(=O)O)cc2ccccc21,8,–
N#Cc1ccc(NC(=O)c2cc3cccc(NC(=O)C45CC6CC(CC(C6)C4)C5)c3[nH]2)c(C(=O)O)c1,16,–
CSc1ncccc1C(=O)Nc1ccc(Br)cc1C(=O)O,> 128,–
Cc1sc(C(=O)Nc2ccc(C#N)cc2C(=O)O)cc1S(=O)(=O)N(C)CC(O)c1ccccc1 (centres unmarked),2,–
O=C(Nc1ccc(Br)cc1C(=O)O)c1csc(S(=O)(=O)NC2Cc3ccccc3C2)c1,8,–
CCCCCn1c(C(=O)Nc2ccc(C#N)cc2C(=O)O)cc2ccccc21,2,–
N#Cc1ccc(NC(=O)c2cc3cccc(NC(=O)CF)c3[nH]2)c(C(=O)O)c1,–,MIC: 2 µg/mL
CCN(CC)C(=O)C1CCCN(S(=O)(=O)c2cc(C(=O)Nc3ccc(C#N)cc3C(=O)O)sc2C)C1 (centres unmarked),64,–
O=C(Nc1ccc(Br)cc1C(=O)O)c1ccc(Br)o1,64,–
Cn1c(C(=O)Nc2ccc(C#N)cc2C(=O)O)cc2ccc(NC(=O)c3ccco3)cc21,2,–
CCCCN(CCCC)CCCNS(=O)(=O)c1cc(C(=O)Nc2ccc(Br)cc2C(=O)O)cs1,> 128,–
CCC(=O)Nc1cccc2cc(C(=O)Nc3ccc(C#N)cc3C(=O)O)[nH]c12,2,–
Cc1sc(C(=O)Nc2ccc(C#N)cc2C(=O)O)cc1S(=O)(=O)N1CCC(C#N)(c2ccccc2)CC1,8,–
Cc1sc(C(=O)Nc2ccc(Br)cc2C(=O)O)cc1S(=O)(=O)NCc1ccc(N(C)C)cc1,16,–
N#Cc1ccc(NC(=O)c2cc3cccc(NC(=O)C4CCCC4)c3[nH]2)c(C(=O)O)c1,2,–
N#Cc1ccc(NC(=O)c2cnc(CCc3ccccc3)cn2)c(C(=O)O)c1,16,–
CC(C)(C)O/N=C1\CCn2c(C(=O)Nc3ccc(C#N)cc3C(=O)O)cc3cccc1c32,1,–
Cc1nc(S(=O)(=O)Nc2cccc3cc(C(=O)Nc4ccc(C#N)cc4C(=O)O)n(C)c23)cn1C,1,–
Cc1sc(C(=O)Nc2ccc(C#N)cc2C(=O)O)cc1S(=O)(=O)N(C)CCc1ccccc1,4,–

Compound,MIC [1] [µg/mL],further results
N#Cc1ccc(NC(=O)c2cc3cccc(NC(=O)C4CC4)c3[nH]2)c(C(=O)O)c1,1,–
Cc1cccc2cc(C(=O)Nc3ccc(C#N)cc3C(=O)O)[nH]c12,2,–
O=C(Nc1ccc(Br)cc1C(=O)O)c1coc(CC[C@H](O)CO)n1,> 128,–
N#Cc1ccc(NC(=O)c2noc3cc(-c4ccc([N+](=O)[O-])cc4C(F)(F)F)c([N+](=O)[O-])cc23)c(C(=O)O)c1,0.03,–
N#Cc1ccc(NC(=O)c2cc3cccc(NC(=O)c4ccccc4-c4ccccc4)c3[nH]2)c(C(=O)O)c1,1,–
N#Cc1ccc(NC(=O)c2cc3cccc(NC(=O)c4csc(SCc5ccccc5)n4)c3[nH]2)c(C(=O)O)c1,> 128,–
Cn1nc(-c2ccccc2)cc1C(=O)Nc1ccc(Br)cc1C(=O)O,64,–
O=C(Nc1ccc(I)cc1C(=O)O)c1cnc(Cl)cn1,128,–
N#Cc1ccc(NC(=O)c2ccc3ccccc3n2)c(C(=O)O)c1,8,–
Cc1noc(C)c1S(=O)(=O)Nc1ccc2cc(C(=O)Nc3ccc(C#N)cc3C(=O)O)n(C)c2c1,2,–
CCCCOc1ccc2cc(C(=O)Nc3ccc(C#N)cc3C(=O)O)n(C)c2c1,16,–
Cc1sc(C(=O)Nc2ccc(Br)cc2C(=O)O)cc1S(=O)(=O)N1CCN(c2ccc(Cl)cc2)CC1,> 128,–
COc1ccc(CC(=O)Nc2cccc3cc(C(=O)Nc4ccc(C#N)cc4C(=O)O)[nH]c23)cc1OC,1,–
Cn1c(C(=O)Nc2ccc(C#N)cc2C(=O)O)cc2c(Br)cc(Br)c(NC(=O)Cc3ccccc3)c21,2,–
Cc1c(S(=O)(=O)N2CCN(c3cccc(C(F)(F)F)c3)CC2)csc1C(=O)Nc1ccc(Br)cc1C(=O)O,16,–
N#Cc1ccc(NC(=O)c2cc3cccc(NC(=O)c4ccno4)c3[nH]2)c(C(=O)O)c1,2,–
N#Cc1ccc(NC(=O)c2ccc3c(c2)OCO3)c(C(=O)O)c1,16,–
O=C(O)c1cc(Br)ccc1NC(=O)c1cccnc1Cl,> 128,–
COc1ccc(-c2cc(C(=O)Nc3ccc(Br)cc3C(=O)O)nn2C)cc1,> 128,–

# Now from value to molecule, other results behind:
MIC [1] [µg/mL],Compound,further results
0.125,CCN(CC)S(=O)(=O)c1ccc2onc(C(=O)Nc3ccc(C#N)cc3C(=O)O)c2c1,–
0.5,COc1ccc(-c2cc(C(=O)Nc3ccc(Br)cc3C(=O)O)no2)cc1,–
1,N#Cc1ccc(NC(=O)c2cnc(SCc3ccccc3)s2)c(C(=O)O)c1,–
0.25,COc1ccccc1-c1cccc2cc(C(=O)Nc3ccc(C#N)cc3C(=O)O)n(C)c12,–
0.125,N#Cc1ccc(NC(=O)c2noc3ccc(-c4ccccc4C(F)(F)F)cc23)c(C(=O)O)c1,–
0.125,CCCCCSc1ccc(C(=O)Nc2ccc(C#N)cc2C(=O)O)cn1,–
0.5,CCNc1ccc2onc(C(=O)Nc3ccc(C#N)cc3C(=O)O)c2c1,–
0.5,COc1ccc(-c2cc(C(=O)Nc3ccc(C#N)cc3C(=O)O)no2)cc1,–
0.25,N#Cc1ccc(NC(=O)c2cc3cccc(NC(=O)c4cccs4)c3[nH]2)c(C(=O)O)c1,–
0.5,N#Cc1ccc(NC(=O)c2cc3cccc(NC(=O)c4cccc(S(=O)(=O)N5CCOCC5)c4)c3[nH]2)c(C(=O)O)c1,–
0.5,Cn1c(C(=O)Nc2ccc(C#N)cc2C(=O)O)cc2ccc(-c3ccccc3F)cc21,–
0.125,Cn1c(C(=O)Nc2ccc(C#N)cc2C(=O)O)cc2cccc(OCc3ccco3)c21,–
0.125,COc1ccccc1-c1cc(C(=O)Nc2ccc(Cl)cc2C(=O)O)no1,–
0.125,COc1ccccc1-c1cc(C(=O)Nc2ccc(Br)cc2C(=O)O)no1,–
0.5,CN(C)S(=O)(=O)Nc1ccc2onc(C(=O)Nc3ccc(C#N)cc3C(=O)O)c2c1,–
0.06,N#Cc1ccc(NC(=O)c2ccc(SCCCCCO)nn2)c(C(=O)O)c1,–
0.25,N#Cc1ccc(NC(=O)c2ccc3c(c2)S(=O)(=O)N(c2ccc(Cl)cc2)CC3)c(C(=O)O)c1,–
0.5,N#Cc1ccc(NC(=O)c2ncc(-c3ccccc3)o2)c(C(=O)O)c1,–

MIC [1] [µg/mL],Compound,further results
0.25,N#Cc1ccc(NC(=O)c2cc3cccc(NC(=O)Cc4ccc(Cl)cc4Cl)c3[nH]2)c(C(=O)O)c1,–
0.125,N#Cc1ccc(NC(=O)c2noc3ccccc23)c(C(=O)O)c1,–
0.25,O=C(Nc1ccc(Br)cc1C(=O)O)c1cc(-c2ccccc2)on1,–
0.5,CC(=O)Nc1ccccc1-c1ccc2c(C(=O)Nc3ccc(C#N)cc3C(=O)O)noc2c1,–
0.125,N#Cc1ccc(NC(=O)c2cc(SCc3ccccc3)on2)c(C(=O)O)c1,–
0.5,CN(C(=O)Nc1ccc2cc(C(=O)Nc3ccc(C#N)cc3C(=O)O)n(C)c2c1)c1ccccc1,–
0.5,COC1CCn2c(C(=O)Nc3ccc(C#N)cc3C(=O)O)cc3cccc1c32 (centres unmarked),–
0.125,N#Cc1ccc(NC(=O)c2cc(CCCc3ccccc3)on2)c(C(=O)O)c1,–
0.25,N#Cc1ccc(NC(=O)c2cc3cccc(NC(=O)Cc4cccc(Cl)c4)c3[nH]2)c(C(=O)O)c1,–
0.125,N#Cc1ccc(NC(=O)c2cc(-c3ccccc3OCCCCCCl)on2)c(C(=O)O)c1,–
0.5,N#Cc1ccc(NC(=O)c2cc3cccc4c3n2CCC4O)c(C(=O)O)c1 (centres unmarked),–
0.25,COc1ccc(CC(=O)Nc2cccc3cc(C(=O)Nc4ccc(C#N)cc4C(=O)O)[nH]c23)cc1,–
0.5,O=C(Nc1ccc(I)cc1C(=O)O)c1cc(-c2ccccc2F)on1,–
0.015,CCCCCCCSc1ccc(C(=O)Nc2ccc(C#N)cc2C(=O)O)nn1,–
0.125,Cn1c(C(=O)Nc2ccc(C#N)cc2C(=O)O)cc2ccc(OCc3ccccc3)cc21,–
0.5,N#Cc1ccc(NC(=O)c2noc3c2CCCC3)c(C(=O)O)c1,–
0.125,CCCCC(C)Sc1ccc(C(=O)Nc2ccc(C#N)cc2C(=O)O)cn1 (centres unmarked),–
0.5,CCSc1ccc(C(=O)Nc2ccc(C#N)cc2C(=O)O)cn1.Cl,–

# — US20040110802A1, “Antibacterial benzoic acid derivatives” (priority 2002, published 2004)
